Data taken from patent US6720346B2, “Thiazole benzamide derivatives and pharmaceutical compositions for inhibiting cell proliferation” (Agouron Pharmaceuticals, Inc., priority 2001, dated 2004).

How the values were obtained:
CDK2/cyclin A = target: T1, CDK2/cyclin A (Homo sapiens, UniProt P24941); experiment: Inhibition of CDK2/cyclin A retinoblastoma kinase activity (Ki; % inhibition); assay type: biochemical; conditions: 0.03 μM compound
T1 construct: made in house; host or cells: CDK2: insect cells (baculovirus); cyclin A: E. coli
Procedure, shortened: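 Apparent Ki values came from fitting concentration-dependent activity data to competitive (or competitive tight-binding) models, and % inhibition from single 30 nM screens of library compounds. Activity was measured as ³²P/³³P incorporation from 25 μM ATP into an Rb substrate by 10 or 19 nM CDK2/delta cyclin A at 30 °C over 60–75 min, pH 7.4.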

human CDK4/cyclin D3 = target: T2, human CDK4/cyclin D3 (Homo sapiens, UniProt P11802); experiment: Inhibition of CDK4/cyclin D retinoblastoma kinase activity (Ki; % inhibition); assay type: biochemical; conditions: 0.03 μM compound
T2 construct: made in house; host or cells: insect cells co-infected with baculovirus vectors
Procedure, shortened: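 Radiometric filter-binding read-out: Rb residues 386-928 phosphorylated by 5 nM CDK4/cyclin D3(1-264) from baculovirus-infected insect cells, 25 μM ATP, HEPES pH 7.4, 30 °C. Run 20 min, or 60 min for tight-binding inhibitors. Screening at 30 nM theoretical compound; apparent Ki by competitive-inhibition fitting.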

HCT-116 cell line = experiment: Inhibition of cell growth, MTT tetrazolium salt assay; assay type: cell-based; conditions: HCT-116 cells; for HCT-116 % Inhibition at 0.1 μM: 0.1 μM compound; for HCT-116 % Inhibition at 0.25 μM: 0.25 μM compound
Procedure, shortened: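 HCT-116 cells in McCoy's 5A were dosed 4 h after plating with compounds in 0.5% DMSO and grown 3–5 days at 37 °C. Then 0.2 mg/mL MTT was added for 4 h and formazan absorbance read at 540 nm. IC50/IC90 came from semi-log plots against DMSO-only controls.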

T2 sequence (P11802 whole entry): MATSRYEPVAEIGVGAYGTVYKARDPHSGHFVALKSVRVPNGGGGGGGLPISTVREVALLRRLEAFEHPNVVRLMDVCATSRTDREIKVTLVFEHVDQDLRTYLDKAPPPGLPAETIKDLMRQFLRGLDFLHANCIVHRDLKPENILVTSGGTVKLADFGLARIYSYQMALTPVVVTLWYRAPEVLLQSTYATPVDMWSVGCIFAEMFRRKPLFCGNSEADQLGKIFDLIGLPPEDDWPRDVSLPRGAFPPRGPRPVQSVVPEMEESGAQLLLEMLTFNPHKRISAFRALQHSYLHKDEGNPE
T2 sequence (P30281 1-264 partner limits assumed): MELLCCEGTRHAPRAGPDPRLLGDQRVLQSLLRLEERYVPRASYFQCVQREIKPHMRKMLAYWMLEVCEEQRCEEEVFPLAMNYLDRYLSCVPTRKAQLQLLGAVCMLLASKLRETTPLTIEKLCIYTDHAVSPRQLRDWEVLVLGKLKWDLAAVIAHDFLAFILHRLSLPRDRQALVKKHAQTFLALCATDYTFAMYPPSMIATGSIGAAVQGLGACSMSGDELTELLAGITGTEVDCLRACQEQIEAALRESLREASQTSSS

Row | SMILES | CDK2 % Inhibition at 0.03 μM (CDK2/cyclin A) [%] | CDK4 % Inhibition at 0.03 μM (human CDK4/cyclin D3) [%] | HCT-116 % Inhibition at 0.1 μM (HCT-116 cell line) [%] | HCT-116 % Inhibition at 0.25 μM (HCT-116 cell line) [%]
1 | CC(CCCC(C)(C)O)NC(=O)c1ccc(Nc2nc(N)c(C(=O)c3c(F)cccc3F)s2)cc1 (centres unmarked) [Example G237] | 9 | 12 | 20 | 49
2 | COc1ccc(CCNC(=O)c2ccc(Nc3nc(N)c(C(=O)c4c(F)cccc4F)s3)cc2)cc1 [Example G238] | 18 | 26 | 22 | 58
3 | CCN(CC)CCCC(C)NC(=O)c1ccc(Nc2nc(N)c(C(=O)c3c(F)cccc3F)s2)cc1 (centres unmarked) [Example G239] | 15 | 27 | 21 | 50
4 | COc1ccc(N2CCN(C(=O)c3ccc(Nc4nc(N)c(C(=O)c5c(F)cccc5F)s4)cc3)CC2)cc1 [Example G240] | 11 | 27 | 15 | 52
5 | COc1ccc(CCNC(=O)c2ccc(Nc3nc(N)c(C(=O)c4c(F)cccc4F)s3)cc2)cc1OC [Example G241] | 22 | 29 | 28 | 57
6 | Nc1nc(Nc2ccc(C(=O)NCCNc3ccc([N+](=O)[O-])cn3)cc2)sc1C(=O)c1c(F)cccc1F [Example G242] | 43 | 49 | 34 | 69
7 | Nc1nc(Nc2ccc(C(=O)N(CCCO)Cc3ccccn3)cc2)sc1C(=O)c1c(F)cccc1F [Example G243] | 18 | 11 | 31 | 40
8 | Cc1ccccc1CNC(=O)c1ccc(Nc2nc(N)c(C(=O)c3c(F)cccc3F)s2)cc1 [Example G244] | 35 | 27 | 30 | 67
9 | Cc1ccc([C@H](C)NC(=O)c2ccc(Nc3nc(N)c(C(=O)c4c(F)cccc4F)s3)cc2)cc1 [Example G245] | 36 | 34 | 18 | 55
10 | COc1cccc(CNC(=O)c2ccc(Nc3nc(N)c(C(=O)c4c(F)cccc4F)s3)cc2)c1 [Example G246] | 32 | 35 | 20 | 62
11 | CC(C)CCNC(=O)c1ccc(Nc2nc(N)c(C(=O)c3c(F)cccc3F)s2)cc1 [Example G247] | 17 | 23 | 12 | 54
12 | CCCN(CCC)C(=O)c1ccc(Nc2nc(N)c(C(=O)c3c(F)cccc3F)s2)cc1 [Example G248] | 8 | 17 | 13 | 55
13 | Nc1nc(Nc2ccc(C(=O)NCc3ccco3)cc2)sc1C(=O)c1c(F)cccc1F [Example G249] | 39 | 40 | 37 | 80
14 | Cc1ccc(CNC(=O)c2ccc(Nc3nc(N)c(C(=O)c4c(F)cccc4F)s3)cc2)o1 [Example G250] | 39 | 39 | 31 | 72
15 | CCN(CCc1ccccn1)C(=O)c1ccc(Nc2nc(N)c(C(=O)c3c(F)cccc3F)s2)cc1 [Example G251] | 10 | 11 | 16 | 48
16 | Nc1nc(Nc2ccc(C(=O)NCc3cccc(F)c3)cc2)sc1C(=O)c1c(F)cccc1F [Example G252] | 29 | 31 | 33 | 67
17 | Cc1ccc(CNC(=O)c2ccc(Nc3nc(N)c(C(=O)c4c(F)cccc4F)s3)cc2)cc1 [Example G253] | 16 | 26 | 19 | 62
18 | COc1ccc(CNC(=O)c2ccc(Nc3nc(N)c(C(=O)c4c(F)cccc4F)s3)cc2)c(OC)c1 [Example G254] | 28 | 20 | 35 | 75

Row | SMILES | CDK2 % Inhibition at 0.03 μM (CDK2/cyclin A) [%] | CDK4 % Inhibition at 0.03 μM (human CDK4/cyclin D3) [%] | HCT-116 % Inhibition at 0.1 μM (HCT-116 cell line) [%] | HCT-116 % Inhibition at 0.25 μM (HCT-116 cell line) [%]
19 | CSc1ccc(NC(=O)c2ccc(Nc3nc(N)c(C(=O)c4c(F)cccc4F)s3)cc2)cc1 [Example G255] | −25 | 0 | 25 | 63
20 | Nc1nc(Nc2ccc(C(=O)NCCCCO)cc2)sc1C(=O)c1c(F)cccc1F [Example G256] | −12 | 11 | 19 | 49
21 | Nc1nc(Nc2ccc(C(=O)N3CCN(CCO)CC3)cc2)sc1C(=O)c1c(F)cccc1F [Example G257] | −43 | 2 | 33 | 51
22 | Nc1nc(Nc2ccc(C(=O)NCc3ccc(Cl)cc3)cc2)sc1C(=O)c1c(F)cccc1F [Example G258] | 25 | 20 | 41 | 84
23 | CN(Cc1ccccc1Cl)C(=O)c1ccc(Nc2nc(N)c(C(=O)c3c(F)cccc3F)s2)cc1 [Example G259] | −30 | −20 | 21 | 46
24 | CCN(CC)CCCN(C)C(=O)c1ccc(Nc2nc(N)c(C(=O)c3c(F)cccc3F)s2)cc1 [Example G260] | −27 | 1 | 30 | 59
25 | Nc1nc(Nc2ccc(C(=O)NCc3ccc(C(F)(F)F)cc3)cc2)sc1C(=O)c1c(F)cccc1F [Example G261] | 30 | 27 | 26 | 69
26 | COc1cc(CNC(=O)c2ccc(Nc3nc(N)c(C(=O)c4c(F)cccc4F)s3)cc2)cc(OC)c1 [Example G262] | 1 | 28 | 24 | 59
27 | CC(C)(CO)CNC(=O)c1ccc(Nc2nc(N)c(C(=O)c3c(F)cccc3F)s2)cc1 [Example G263] | 2 | 24 | 26 | 54
28 | Nc1nc(Nc2ccc(C(=O)NCCOCCO)cc2)sc1C(=O)c1c(F)cccc1F [Example G264] | −9 | 13 | 22 | 53
29 | Nc1nc(Nc2ccc(C(=O)N3CCCCC3CCO)cc2)sc1C(=O)c1c(F)cccc1F (centres unmarked) [Example G265] | −24 | 1 | 21 | 48
30 | Nc1nc(Nc2ccc(C(=O)NCCc3ccc(Cl)cc3)cc2)sc1C(=O)c1c(F)cccc1F [Example G266] | 0 | 7 | 28 | 30
31 | CC(C)(C)C1CCC(NC(=O)c2ccc(Nc3nc(N)c(C(=O)c4c(F)cccc4F)s3)cc2)CC1 (centres unmarked) [Example G267] | −23 | −14 | 24 | 44
32 | Nc1nc(Nc2ccc(C(=O)NCCc3ccncc3)cc2)sc1C(=O)c1c(F)cccc1F [Example G268] | −11 | 2 | 26 | 63
33 | Nc1nc(Nc2ccc(C(=O)NCc3ccccc3C(F)(F)F)cc2)sc1C(=O)c1c(F)cccc1F [Example G269] | 6 | 2 | 19 | 65
34 | CC(C)(C)c1ccc(CNC(=O)c2ccc(Nc3nc(N)c(C(=O)c4c(F)cccc4F)s3)cc2)cc1 [Example G270] | 26 | 17 | 15 | 45
35 | Nc1nc(Nc2ccc(C(=O)NCCc3c[nH]c4ccccc34)cc2)sc1C(=O)c1c(F)cccc1F [Example G271] | 32 | 27 | 8 | 49
